In PMC5096464 (Journal of the American Chemical Society, 2016):
Numbering of substitutions follows the chain as printed.

Experiments:
T79S PafA = target: T1, T79S PafA (Elizabethkingia meningoseptica, UniProt Q9KJX5, T79S); assay: biochemical; details: pH 8.0, subsaturating me-pNPP
T1 sequence (Q9KJX5 26-546 T79S): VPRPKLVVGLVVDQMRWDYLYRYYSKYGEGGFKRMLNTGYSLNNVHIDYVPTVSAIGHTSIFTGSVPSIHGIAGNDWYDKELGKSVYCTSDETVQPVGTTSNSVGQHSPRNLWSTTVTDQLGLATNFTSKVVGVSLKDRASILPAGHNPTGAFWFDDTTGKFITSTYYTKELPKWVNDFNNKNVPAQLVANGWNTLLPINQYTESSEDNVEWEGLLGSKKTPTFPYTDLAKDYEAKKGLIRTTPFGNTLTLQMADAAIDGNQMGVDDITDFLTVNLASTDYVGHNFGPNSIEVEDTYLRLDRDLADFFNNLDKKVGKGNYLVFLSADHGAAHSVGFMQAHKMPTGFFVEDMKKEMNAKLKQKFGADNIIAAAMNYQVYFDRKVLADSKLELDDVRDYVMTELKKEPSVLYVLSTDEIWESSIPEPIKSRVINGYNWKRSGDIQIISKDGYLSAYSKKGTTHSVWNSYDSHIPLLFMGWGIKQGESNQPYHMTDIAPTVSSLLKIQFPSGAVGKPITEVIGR

N100A PafA = target: T2, N100A PafA (Elizabethkingia meningoseptica, UniProt Q9KJX5, N100A); assay: biochemical; details: pH 8.0, subsaturating me-pNPP
T2 sequence (Q9KJX5 26-546 N100A): T1 sequence (Q9KJX5 26-546 T79S) with S54T, N75A

R164A PafA = target: T3, R164A PafA (Elizabethkingia meningoseptica, UniProt Q9KJX5, R164A); assay: biochemical; details: pH 8.0, subsaturating me-pNPP
T3 sequence (Q9KJX5 26-546 R164A): T1 sequence (Q9KJX5 26-546 T79S) with S54T, R139A

WT PafA = target: T4, WT PafA (Elizabethkingia meningoseptica, UniProt Q9KJX5); assay: biochemical; details: pH 8.0, subsaturating me-pNPP
T4 sequence (Q9KJX5 26-546): T1 sequence (Q9KJX5 26-546 T79S) with S54T

K162A PafA = target: T5, K162A PafA (Elizabethkingia meningoseptica, UniProt Q9KJX5, K162A); assay: biochemical; details: pH 8.0, subsaturating me-pNPP
T5 sequence (Q9KJX5 26-546 K162A): T1 sequence (Q9KJX5 26-546 T79S) with S54T, K137A

EcAP [1] = details: ref 39 and 57; cited from earlier work
EcAP [2] = details: EcAP vs PafA

Row | Structure (SMILES) | Ki (T79S PafA) [µM] | Ki (N100A PafA) [µM] | Ki (R164A PafA) [µM] | Ki (WT PafA) [µM] | Ki (K162A PafA) [µM] | Ki (product inhibition) (EcAP [1]) | product inhibition of EcAP stronger than that for PafA (EcAP [2])
1 | [O]=[W](=[O])([OH])[OH] [tungstate] | 280 | 570 | 1300 | 3.9 | > 13000 | – | –
2 | O=P(O)(O)O [Pi, inorganic phosphate] | 9.6 | 1300 | > 13000 | 830 | 4700 | low micromolar | more than 3 orders of magnitude
3 | [O]=[V]([OH])([OH])[OH] [vanadate] | 90 | 190 | 300 | 0.67 | 79 | – | –
